Values quoted from earlier work in US20240000789A1, “THERAPEUTIC COMBINATIONS COMPRISING A CRAF INHIBITOR” (NOVARTIS AG, priority 2020, published 2024).
Where two headings read alike, the source gives them in different places.

System: advanced NRAS-mutant melanoma
Conditions: cited from earlier work; for ORR (overall response rate): NEMO phase 3, NRAS-mutant melanoma patients

Row | SMILES | ORR (overall response rate) | ORR (overall response rate) (listed as binimetinib) | DOR (NEMO phase 3) | PFS (NEMO phase 3) | discontinuation rate as a result of adverse events suspected to be related to study drug (NEMO phase 3) | mOS (NEMO phase 3)
1 | Cn1cnc2c(F)c(Nc3ccc(Br)cc3F)c(C(=O)NOCCO)cc21 [Binimetinib] | 15% | 15% | 6.9 months | 2.8 months | 20% | 11 months
2 | CN(C)/N=N/c1[nH]cnc1C(N)=O [Dacarbazine] |  |  |  |  | 5% | 
